Reference: article PMC11547513, “Design, Synthesis and Biological Activity Evaluation of β-Carboline Derivatives Containing Nitrogen Heterocycles” (Molecules, 2024)
Read-outs that look alike come from different tables or passages of the source.

How the values were obtained:
[1] = system: A549 (human lung cancer cell); assay: MTT assay, in vitro cytotoxicity on A549; settings: A549, read-out: Inhibitory Activity/% at 10 μM, A549
Excerpt: (§1) Cells were purchased from the Cell Bank of the Chinese Academy of Sciences (Kunming, China).

[2] = system: K562 (human chronic myeloid leukemia cell); assay: MTT assay, in vitro cytotoxicity on K562; settings: Homo sapiens, K562, read-out: Inhibitory Activity/% at 10 μM, K562
Excerpt: as §1

[3] = system: PC-3 (human prostate cancer cell); assay: MTT assay, in vitro cytotoxicity on PC-3; settings: 10 μM, average of three replicates, "/" means no anticancer activity; for inhibition at 10 µM: Homo sapiens
Excerpt: as §1

[4] = system: T47D (human breast cancer cell); assay: MTT assay, in vitro cytotoxicity on T47D; settings: read-out: Inhibitory Activity/% at 10 μM, T47D
Excerpt: as §1

[5] = system: Hek-293T (human embryonic kidney cells); assay: MTT assay, in vitro cytotoxicity on normal Hek-293T; settings: read-out: Inhibitory Activity/% at 10 μM, Hek-293T
Excerpt: as §1

[6] = read-out: Inhibitory Activity/% at 10 μM, PC-3, Table 1 (7 series)
[7] = read-out: Inhibitory Activity/% at 10 μM, PC-3, Table 2 (8 series)

SMILES	inhibition at 10 µM [1] [%]	inhibition at 10 µM [2] [%]	inhibition at 10 µM [3, 6] [%]	inhibition at 10 µM [4] [%]	inhibition at 10 µM [5] [%]	melting point [°C]	inhibition at 10 µM [3, 7] [%]	Inhibitory Activity/% at 10 μM, PC-3 ([3]; Table 2 (8 series)) [%]
O=c1[nH]cc(F)c(=O)[nH]1 [5-Fluorouracil, reference compound]	40.6 ± 2.04							
O=C(CSc1nnc(-c2cc3c(cn2)[nH]c2ccccc23)o1)N1CCN(c2ccc(Cl)c(Cl)c2)CC1 [Compound 7a]	0.72 ± 1.63	0.85 ± 1.01	29.58 ± 0.25	32.3 ± 3.36	18.6 ± 0.71	168.3 to 170.9		
O=C(CSc1nnc(-c2cc3c(cn2)[nH]c2ccccc23)o1)N1CCN(c2ccc(Br)cc2)CC1 [Compound 7b]	13.6 ± 7.88	8.98 ± 3.13	29.09 ± 0.27	42.6 ± 1.65	33.3 ± 0.8	275.4 to 277.7		
O=C(CSc1nnc(-c2cc3c(cn2)[nH]c2ccccc23)o1)N1CCN(c2ccc(O)cc2)CC1 [Compound 7c]	16.8 ± 2.39	18.1 ± 2.63	22.7 ± 2.19	40.2 ± 0.9	47.3 ± 4.59	163.9 to 165.8		
O=C(CSc1nnc(-c2cc3c(cn2)[nH]c2ccccc23)o1)N1CCN(c2ccc(F)cc2)CC1 [Compound 7d]	11.2 ± 0.69	17.8 ± 3.97	26.5 ± 5.76	25.4 ± 4.82	36.9 ± 1.74			
O=C(CSc1nnc(-c2cc3c(cn2)[nH]c2ccccc23)o1)N1CCN(c2ccc(Cl)cc2)CC1 [Compound 7e]	18 ± 2.06	12.7 ± 4.72	25 ± 4.06	47.7 ± 3.36	26.4 ± 1.35	246.4 to 248.3		
COc1ccc(N2CCN(C(=O)CSc3nnc(-c4cc5c(cn4)[nH]c4ccccc45)o3)CC2)cc1 [Compound 7f]	13.5 ± 6.97	21.5 ± 3.02	11.5 ± 2.78	42.4 ± 4.23	56.8 ± 2.21			
O=C(CSc1nnc(-c2cc3c(cn2)[nH]c2ccccc23)o1)N1CCN(c2ncccn2)CC1 [Compound 7g]	< 0	0.05 ± 2.99	14.8 ± 2.23	42.5 ± 3.19	34.1 ± 6.8	212.6 to 213.3		
O=C(CSc1nnc(-c2cc3c(cn2)[nH]c2ccccc23)o1)N1CCN(c2ccc(F)cc2F)CC1 [Compound 7h]	2.16 ± 3.56	8.23 ± 4.12	10.7 ± 2.68	46.4 ± 2.12	47.5 ± 0.78			
O=C(CSc1nnc(-c2cc3c(cn2)[nH]c2ccccc23)o1)N1CCN(c2ccccc2)CC1 [Compound 7i]	5.2 ± 7.21	23.6 ± 3.59	35.6 ± 1.89	54.2 ± 3.88	84.14 ± 0.79	148.9 to 150.6		
COc1cccc(N2CCN(C(=O)CSc3nnc(-c4cc5c(cn4)[nH]c4ccccc45)o3)CC2)c1 [Compound 7j]	34 ± 0.87	13.6 ± 1.21	14.7 ± 4.49	39.9 ± 3.5	13.4 ± 0.68			
O=C(CSc1nnc(-c2cc3c(cn2)[nH]c2ccccc23)o1)Nc1ccc(F)cc1 [Compound 7k]	10.1 ± 6.19	12.2 ± 0.18	35.8 ± 4.09	47.5 ± 1.39	30.8 ± 2.59	296.4 to 297.9		
O=C(CSc1nnc(-c2cc3c(cn2)[nH]c2ccccc23)o1)N1CCOCC1 [Compound 7l]	12.2 ± 6.14	9.28 ± 2.51	39.6 ± 5.06	19.3 ± 5.03	11.2 ± 7.91	228.3 to 229.6		
CS(=O)(=O)N1CCN(C(=O)CSc2nnc(-c3cc4c(cn3)[nH]c3ccccc34)o2)CC1 [Compound 7m]	14.7 ± 3.64	33 ± 1.83	20 ± 3.22	25.2 ± 4.1	29.5 ± 3.33	174.3 to 175.6		
O=C(CSc1nnc(-c2cc3c(cn2)[nH]c2ccccc23)o1)N1CCOc2ccccc21 [Compound 7n]	8.72 ± 2.57	35.1 ± 3.12	36 ± 3.68	47.8 ± 0.82	61.8 ± 1.57	232.4 to 232.8		
O=C(CSc1nnc(-c2cc3c(cn2)[nH]c2ccccc23)o1)N1CCN(C(c2ccc(F)cc2)c2ccc(F)cc2)CC1 [Compound 7o]	< 0	1.26 ± 3.66	5.36 ± 3.63	25 ± 1.43	35.3 ± 3.81			

SMILES	inhibition at 10 µM [1] [%]	inhibition at 10 µM [2] [%]	inhibition at 10 µM [3, 6] [%]	inhibition at 10 µM [4] [%]	inhibition at 10 µM [5] [%]	melting point [°C]	inhibition at 10 µM [3, 7] [%]	Inhibitory Activity/% at 10 μM, PC-3 ([3]; Table 2 (8 series)) [%]
O=C(CSc1nnc(-c2cc3c(cn2)[nH]c2ccccc23)o1)N1CCN(C2CCCCC2)CC1 [Compound 7p]	17 ± 2.1	8.68 ± 6.83	51.2 ± 3.11	50.7 ± 5.79	61.5 ± 3.24	158.8 to 161.4		
O=C(CSc1nnc(-c2cc3c(cn2)[nH]c2ccccc23)o1)Nc1ccc(CN2CCOCC2)cc1 [Compound 7q]	8.67 ± 0.64	17 ± 1.86	29.5 ± 1.38	46.4 ± 2.86	32.3 ± 2.21			
O=C(CSc1nnc(-c2cc3c(cn2)[nH]c2ccccc23)o1)N1CCN(c2ccc(C(F)(F)F)cn2)CC1 [Compound 7r]	3.03 ± 5.83	17.2 ± 2.35	44 ± 2.62	38.4 ± 5.85	0.74 ± 3.77	300.7 to 302.9		
COc1cc(-c2nc(-c3nnc(SCC(=O)N4CCN(c5ccc(Cl)c(Cl)c5)CC4)o3)cc3c2[nH]c2ccccc23)cc(OC)c1OC [Compound 8a]	7.02 ± 4.02	21 ± 1.65		7.49 ± 3.25	29.4 ± 2.16		7.73 ± 1.33	
COc1cc(-c2nc(-c3nnc(SCC(=O)N4CCN(c5ccc(Br)cc5)CC4)o3)cc3c2[nH]c2ccccc23)cc(OC)c1OC [Compound 8b]	5.03 ± 5.42	10.8 ± 2.32		10.6 ± 1.16	38.4 ± 3.85	155.8 to 157.9	8.91 ± 5.34	
COc1cc(-c2nc(-c3nnc(SCC(=O)N4CCN(c5ccc(F)cc5)CC4)o3)cc3c2[nH]c2ccccc23)cc(OC)c1OC [Compound 8d]	10.1 ± 4.44	8.62 ± 5.59		< 0	36.9 ± 2.63	156.8 to 158.1	17.9 ± 2.8	
COc1cc(-c2nc(-c3nnc(SCC(=O)N4CCN(c5ccc(Cl)cc5)CC4)o3)cc3c2[nH]c2ccccc23)cc(OC)c1OC [Compound 8e]	26.8 ± 2.6	54.4 ± 2.32		< 0	23.4 ± 3.77		26.9 ± 4.39	
COc1ccc(N2CCN(C(=O)CSc3nnc(-c4cc5c([nH]c6ccccc65)c(-c5cc(OC)c(OC)c(OC)c5)n4)o3)CC2)cc1 [Compound 8f]	13.2 ± 0.56	7.87 ± 5.82		6.91 ± 5.13	20.2 ± 4.34	156.5 to 158.6	34.5 ± 0.68	
COc1cc(-c2nc(-c3nnc(SCC(=O)N4CCN(c5ccc(F)cc5F)CC4)o3)cc3c2[nH]c2ccccc23)cc(OC)c1OC [Compound 8h]	17.9 ± 2.91	2.46 ± 1.78		< 0	29.6 ± 3.04	178.1 to 179.4	12.2 ± 1.13	
COc1cc(-c2nc(-c3nnc(SCC(=O)N4CCN(c5ccccc5)CC4)o3)cc3c2[nH]c2ccccc23)cc(OC)c1OC [Compound 8i]	18.4 ± 1.8	25.5 ± 2.72		0.56 ± 3.38	25.6 ± 3.44		21.3 ± 4.8	
COc1cccc(N2CCN(C(=O)CSc3nnc(-c4cc5c([nH]c6ccccc65)c(-c5cc(OC)c(OC)c(OC)c5)n4)o3)CC2)c1 [Compound 8j]	0.13 ± 4.62	25 ± 3.95		< 0	20.4 ± 1.51		15.7 ± 3.93	
COc1cc(-c2nc(-c3nnc(SCC(=O)Nc4ccc(F)cc4)o3)cc3c2[nH]c2ccccc23)cc(OC)c1OC [Compound 8k]	33.2 ± 0.45	33.5 ± 8.79		6.94 ± 3.38	29.6 ± 2.33	235.8 to 237.4	> 40	44.72 ± 1.82
COc1cc(-c2nc(-c3nnc(SCC(=O)N4CCN(S(C)(=O)=O)CC4)o3)cc3c2[nH]c2ccccc23)cc(OC)c1OC [Compound 8m]	2.7 ± 1.78	30.2 ± 2.16		< 0	21 ± 2.61		46.58 ± 0.35	
COc1cc(-c2nc(-c3nnc(SCC(=O)N4CCOc5ccccc54)o3)cc3c2[nH]c2ccccc23)cc(OC)c1OC [Compound 8n]	7.62 ± 3.84	38.2 ± 3.73		25.6 ± 3.79	35.5 ± 1.75	225.9 to 226.8	32 ± 1.17	
COc1cc(-c2nc(-c3nnc(SCC(=O)N4CCN(C5CCCCC5)CC4)o3)cc3c2[nH]c2ccccc23)cc(OC)c1OC [Compound 8p]	8.84 ± 0.36	44.6 ± 4.1		54.2 ± 4.87	28.9 ± 3.22		19.1 ± 2.79	
